Data taken from patent publication US9079866B2, “Flap modulators” (JANSSEN PHARMACEUTICA NV, priority 2013, dated 2015).
Structures can show the parent of a compound that is named as a salt. Where two headings read alike, the source gives them in different places.

What was measured:
[1] = test system: leukotriene pathway in human whole blood (LTB4 levels); experiment: Human whole blood assay (A23187-stimulated LTB4); type: cell-based; settings: Homo sapiens, read-out: LTB4 IC50 1:1
Summary of the method: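 Single-replicate data from at least one healthy donor: compound pre-incubated 15 min at 37° Celsius in 1:1 RPMI-diluted heparinised blood, followed by 30 min calcium ionophore A23187 (7 μg/mL) challenge at 37° Celsius. LTB4 in plasma quantified by kit; IC50 via 4-parameter equation.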

human FLAP = human FLAP (Homo sapiens (Human), UniProt P20292); experiment: FLAP binding assay (HTRF format); settings: HTRF format
human FLAP, sequence (P20292 whole entry): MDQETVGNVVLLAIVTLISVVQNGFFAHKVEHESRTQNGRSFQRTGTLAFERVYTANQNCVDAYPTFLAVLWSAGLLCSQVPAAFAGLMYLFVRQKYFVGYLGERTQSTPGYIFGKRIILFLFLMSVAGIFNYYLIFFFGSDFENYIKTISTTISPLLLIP
Summary of the method: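 Samples were run in duplicate on each of two plates and the plate results averaged. Read-out is the HTRF signal ratio.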

[2] = human whole blood diluted 1:1, A23187-stimulated
[3] = human whole blood diluted 1:1 in RPMI, A23187-stimulated LTB4
[4] = human FLAP wild type, average of two plates, duplicates

Compound | IC50 [1, 2] [nM] | Ki (human FLAP; wild type FLAP) [nM] | IC50 [1, 3] [nM] | Ki (human FLAP; [4]) [nM]
Nc1cnc(-c2ccc(-c3ccccc3C(=O)N3CCC(O)CC3)cc2F)cn1 [Example 514, 1-{[4′-(5-Aminopyrazin-2-yl)-3′-fluorobiphenyl-2-yl]carbonyl}piperidin-4-ol] | 148 | 132 | – | –
CN([C@@H]1CCCNC1)S(=O)(=O)c1ccccc1-c1ccc(-c2cnc(N)nc2)c(F)c1 [Example 257, 4′-(2-Aminopyrimidin-5-yl)-3′-fluoro-N-methyl-N-[(3R)-piperidin-3-yl]biphenyl-2-sulfonamide] | – | – | 1120 | 154
Nc1ncc(-c2ccc(-c3ccc(C(F)(F)F)cc3Oc3ncccn3)cc2F)cn1 [Example 552, 5-[3-Fluoro-2′-(pyrimidin-2-yloxy)-4′-(trifluoromethyl)biphenyl-4-yl]pyrimidin-2-amine] | 102 | 5 | – | –
Nc1cnc(-c2ccc(-c3ccccc3C(=O)N3CCC[C@@H](O)C3)cc2F)cn1 [Example 762, (3R)-1-{[4′-(5-Aminopyrazin-2-yl)-3′-fluorobiphenyl-2-yl]carbonyl}piperidin-3-ol] | 442 | 159 | – | –
Nc1cnc(-c2ccccc2-c2ccc(-c3cnc(N)nc3)c(F)c2)cn1 [Example 841, 5-[2′-(5-Aminopyrazin-2-yl)-3-fluorobiphenyl-4-yl]pyrimidin-2-amine] | 370 | 146 | – | –
CC(C)(C)NS(=O)(=O)c1ccccc1-c1ccc(-c2cnc(N)c(Cl)c2)c(F)c1 [Example 451, 4′-(6-Amino-5-chloropyridin-3-yl)-N-tert-butyl-3′-fluorobiphenyl-2-sulfonamide trifluoroacetic acid salt] | 38 | 2 | – | –
Nc1cnc(-c2ccc(-c3ccccc3Oc3ccnc(C(F)(F)F)n3)cc2F)cn1 [Example 547, 5-(3-Fluoro-2′-{[2-(trifluoromethyl)pyrimidin-4-yl]oxy}biphenyl-4-yl)pyrazin-2-amine] | 104 | 35 | – | –
Nc1cnc(-c2ccc(-c3cccnc3S(=O)(=O)CCN3CCOCC3)cc2F)cn1 [Example 822, 5-(2-Fluoro-4-(2-((2-morpholinoethyl)sulfonyl)pyridine-3-yl)phenyl)pyrazin-2-amine] | 99.1 | 280 | – | –
Nc1cnc(-c2ccc(-c3ccccc3S(=O)(=O)N3CCC(F)(F)CC3)cc2F)cn1 [Example 49, 5-{2′-[(4,4-Difluoropiperidin-1-yl)sulfonyl]-3-fluorobiphenyl-4-yl}pyrazin-2-amine] | – | – | 21 | 2
CS(=O)(=O)c1ccccc1-c1ccc(-c2cnc3c(c2)OCCN3)c(F)c1 [Example 385, 7-[3-Fluoro-2′-(methylsulfonyl)biphenyl-4-yl]-3,4-dihydro-2H-pyrido[3,2-b][1,4]oxazine] | – | – | 1080 | 42
NS(=O)(=O)c1ccccc1-c1ccc(-c2cnc3c(c2)OCCN3)c(F)c1 [Example 387, 4′-(3,4-Dihydro-2H-pyrido[3,2-b][1,4]oxazin-7-yl)-3′-fluorobiphenyl-2-sulfonamide] | – | – | 253 | 8
CC(=O)N1CCC(S(=O)(=O)c2ncccc2-c2ccc(-c3cnc(N)nc3)c(F)c2)CC1 [Example 815] | 128 | 256 | – | –
CC(C)(C)NS(=O)(=O)c1ccccc1-c1ccc(-c2cnc(N)cc2C#N)c(F)c1 [Example 436, 4′-(6-Amino-4-cyanopyridin-3-yl)-N-tert-butyl-3′-fluorobiphenyl-2-sulfonamide] | 3280 | 308 | – | –
NCC1CN(S(=O)(=O)c2ccccc2-c2ccc(-c3cnc(N)cn3)c(F)c2)C1 [Example 124, 5-(2′-{[3-(Aminomethyl)azetidin-1-yl]sulfonyl}-3-fluorobiphenyl-4-yl)pyrazin-2-amine] | – | – | 217 | 35
Fc1cc(-c2ccccc2Oc2ncccn2)ccc1-c1cnc2[nH]ccc2c1 [Example 525, 5-[3-Fluoro-2′-(pyrimidin-2-yloxy)biphenyl-4-yl]-1H-pyrrolo[2,3-b]pyridine] | 36 | 3 | – | –

Second part, the compound after the results:

IC50 [1, 2] [nM] | Ki (human FLAP; wild type FLAP) [nM] | IC50 [1, 3] [nM] | Ki (human FLAP; [4]) [nM] | Compound
– | – | 18 | 6 | CCNS(=O)(=O)c1ccccc1-c1ccc(-c2cnc(N)cn2)c(F)c1 [Example 16, 4′-(5-Aminopyrazin-2-yl)-N-ethyl-3′-fluorobiphenyl-2-sulfonamide]
– | – | 10 | 3 | Nc1cnc(-c2ccc(-c3ccccc3S(=O)(=O)N3CCS(=O)(=O)CC3)cc2F)cn1 [Example 45, 5-{2′-[(1,1-Dioxidothiomorpholin-4-yl)sulfonyl]-3-fluorobiphenyl-4-yl}pyrazin-2-amine]
– | – | 341 | 133 | NC(=O)C1CCN1S(=O)(=O)c1ccccc1-c1ccc(-c2cnc(N)cn2)c(F)c1 (racemic) [Example 139, Racemic 1-{[4′-(5-Aminopyrazin-2-yl)-3′-fluorobiphenyl-2-yl]sulfonyl}azetidine-2-carboxamide]
– | – | 46 | 18 | Nc1ncc(-c2ccc(-c3ccccc3S(=O)(=O)N[C@H]3CC[C@H](O)CC3)cc2F)cn1 [Example 262, 4′-(2-Aminopyrimidin-5-yl)-3′-fluoro-N-(trans-4-hydroxycyclohexyl)biphenyl-2-sulfonamide]
– | – | 171 | 58 | CCCS(=O)(=O)c1ccccc1-c1ccc(-c2cnc(N)cn2)c(F)c1 [Example 192, 5-[3-Fluoro-2′-(propylsulfonyl)biphenyl-4-yl]pyrazin-2-amine]
– | – | 56 | 2 | CCN(CC)S(=O)(=O)c1ccccc1-c1ccc(-c2cnc3c(c2)OCCN3)c(F)c1 [Example 391, 4′-(3,4-Dihydro-2H-pyrido[3,2-b][1,4]oxazin-7-yl)-N,N-diethyl-3′-fluorobiphenyl-2-sulfonamide]
– | – | 11 | 2 | Nc1cnc(-c2ccc(-c3ccccc3S(=O)(=O)NCCCCCO)cc2F)cn1 [Example 132, 4′-(5-Aminopyrazin-2-yl)-3′-fluoro-N-(5-hydroxypentyl)biphenyl-2-sulfonamide]
> 10000 | 27.6 | – | – | Nc1cnc(-c2ccc(-c3ccc(C(F)(F)F)cc3C(=O)O)cc2F)cn1 [Example 603, 4′-(5-Aminopyrazin-2-yl)-3′-fluoro-4-(trifluoromethyl)biphenyl-2-carboxylic acid]
– | – | 358 | 21 | CCN(CC)C(=O)CSc1ccccc1-c1ccc(-c2cnc(N)cn2)c(F)c1 [Example 201, 2-{[4′-(5-Aminopyrazin-2-yl)-3′-fluorobiphenyl-2-yl]sulfanyl}-N,N-diethylacetamide]
210 | 12 | – | – | Nc1ncc(-c2ccc(-c3ccc(C(F)(F)F)cc3O)cc2F)cn1 [Example 558, 4′-(2-Aminopyrimidin-5-yl)-3′-fluoro-4-(trifluoromethyl)biphenyl-2-ol]
